One data set deals with T1, GIP receptor (GIPR) (Rattus norvegicus, UniProt P43219).
T1 construct: endogenous in cells; host or cells: rat INS-1 insulinoma cells (with cAMP-luciferase reporter / pGloSensor-22F biosensor)
T1 sequence (P43219 19-455): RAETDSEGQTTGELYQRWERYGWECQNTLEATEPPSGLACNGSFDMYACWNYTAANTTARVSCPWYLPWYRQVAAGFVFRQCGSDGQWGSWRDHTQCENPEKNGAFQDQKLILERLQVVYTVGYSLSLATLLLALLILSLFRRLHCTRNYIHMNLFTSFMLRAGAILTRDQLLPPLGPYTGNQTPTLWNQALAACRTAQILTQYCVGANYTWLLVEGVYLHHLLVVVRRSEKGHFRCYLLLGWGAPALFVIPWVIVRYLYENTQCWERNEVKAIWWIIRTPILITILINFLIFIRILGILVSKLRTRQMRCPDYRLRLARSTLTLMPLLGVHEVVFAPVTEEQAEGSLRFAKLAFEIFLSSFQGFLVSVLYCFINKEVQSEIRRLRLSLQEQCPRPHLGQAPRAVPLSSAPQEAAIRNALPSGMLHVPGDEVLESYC
Put plainly: cAMP-Glo assay in rat insulinoma INS-1 cells harboring a cAMP-luciferase reporter gene. The class given is cell-based. As to conditions: 1 hour glucose, then 2 hour incubation, FIG. 4A. The source says:
Rat insulinoma INS-1 cells harboring a cAMP-luciferase reporter gene were used to study the activation of GIPR. Without wishing to be bound by theory, the activation of GIPR leads to temporary depletion of ATP because of consumption of ATP in cyclization reaction to produce cAMP as well as by phosphorylation by protein kinase A of its substrate. Without wishing to be bound by theory, the temporary depletion of ATP leads to an inhibition of luciferase activity, which needs ATP as a substrate.

Data set [1] has as its target T2, glucose-dependent insulinotropic polypeptide receptor (GIPR) (Homo sapiens, UniProt P48546).
T2 construct: host or cells: HEK293T (GeneBLAzer GIPR-CRE-bla)
T2 sequence (P48546 22-466): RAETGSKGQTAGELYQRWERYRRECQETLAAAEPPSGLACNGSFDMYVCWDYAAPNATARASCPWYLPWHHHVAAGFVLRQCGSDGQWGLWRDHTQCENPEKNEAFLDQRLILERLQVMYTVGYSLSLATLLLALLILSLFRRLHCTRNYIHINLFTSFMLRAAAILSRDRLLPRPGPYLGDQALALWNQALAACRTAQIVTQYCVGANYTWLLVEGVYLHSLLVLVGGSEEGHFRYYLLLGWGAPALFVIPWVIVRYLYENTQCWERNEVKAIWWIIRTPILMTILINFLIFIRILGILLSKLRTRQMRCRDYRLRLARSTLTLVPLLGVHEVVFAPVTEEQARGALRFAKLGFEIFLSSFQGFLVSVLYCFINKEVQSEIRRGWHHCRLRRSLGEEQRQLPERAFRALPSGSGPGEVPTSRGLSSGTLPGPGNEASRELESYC
Put plainly: GeneBLAzer GIPR-CRE-bla HEK293T cell-based reporter assay. As to conditions: increasing amounts, FIG. 3B. The protocol:
This assay is diagrammatically represented in FIG. 3A. […] In the presence of the β-lactamase LiveBLAzer™ substrate, cells expressing β-lactamase fluoresce blue (460 nm), while those not expressing β-lactamase fluoresce green (530 nm); higher 460/530 ratio indicates the activation of GIPR.
Briefly, GeneBLAzer® GIPR-CRE-bla HEK293T cells were added to wells of black-wall assay plates. […] To each well, LiverBLAzer-FRET B/G substrate mixture was added. The plate was covered with plate sealer and incubated at room temperature for 2 hours in the dark. Fluorescence emission was measured on SpectraMax plate reader at 460 nm and 530 nm with excitation set to 409 nm. After subtraction of background, average value at 460 nm (blue color) was divided by average value at 530 nm (green color) to obtain the 460/530 ratio.

The test system of data set [2] is HFD-fed mice (Male C57BL/6). Nature of the data set: glucose tolerance test (GTT) model in HFD-fed mice. The note with it: for serum insulin time course following glucose administration: FIG. 7C; for serum glucose time course following glucose administration: i.v. treatment, 18 hours fast, 2 g/kg glucose, versus PBS control (200 to about 800 mg/dl), FIG. 7A. The class given is in vivo. The protocol:
Cages were changed once, then changed once a week.
The mice administered the above treatment by i.v. injections. The mice were then fasted for 18 hours and administered a dose of 2 g/kg glucose by i.v. injections. Blood samples were drawn by tail clip bleeding at 15, 30 and 60 minutes post dosing and cardiac bleeding was used at 2 hours after glucose injection as end-point.

Data set [3] has as its system HFD-fed mice (Male C57BL/6). Nature of the data set: longer-term obesity model in HFD-fed mice. As to conditions: for blood glucose levels: Days 0, 1, 10 and 15, compared to the untreated mice, FIG. 8E; for liver histology: hepatocellular ballooning and steatosis: H&E; for average daily food intake: compared to the untreated mice, FIG. 8D; for liver weight: livers of PBS control mice versus treated mice / subcutaneous white adipose tissue (sWAT) weight: day 19 necropsy; for liver weight: livers of PBS control mice versus treated mice: FIG. 8G; for subcutaneous white adipose tissue (sWAT) weight: versus PBS control, FIG. 8H; for plasma insulin levels on Day 15: one way ANOVA p<0.0001, FIG. 8C right panel; for change in body weight: tail vein dosing Day 0, 4, 7, 10, 14, 18, FIG. 8A. From the text: Briefly, mice (Male C57BL/6) were of approximately 13 weeks of age were housed 4 mice per cage. Following 2 weeks of acclimation, mice were introduced to 60% kcal HFD (Research Diets D12492). Cages were changed once, then changed once a week. Weekly body weights and non-fasted blood glucose were collected. […] The longer-term obesity model assesses a number of end points associated with obesity related type 2 diabetes (FIG. 6A).
Mice (Male C57BL/6) were of approximately 13 weeks of age were housed 4 mice per cage. Following 2 weeks of acclimatation, mice were introduced to 60% kcal HFD (Research Diets D12492). Cages were changed once, then changed once a week. Weekly body weights and non-fasted blood glucose were collected.
Mice were injected by tail vein with vehicle or the drugs on Day 0, Day 4, Day 7, Day 10, Day 14, and Day 18. Body weights were measured every 2 days. Change in body weight was calculated and plotted.
Cumulative food intake was measured between day 0 and 3, between day 4 and 7, between day 7 and day 11, and between day 11 and day 14, and represented as average daily food intake. For food consumption, remaining food was weighed on days 3, 8, and 15, and subtracted from the starting weight. This value was then normalized to the number of mice in the cage, and the number of days the mice had access to the food prior to weighing.
Blood glucose levels were measured on Days 0, 1, 10 and 15 and plotted.
On day 19 during terminal necropsy, liver and subcutaneous white adipose tissue were recovered weighed from treated animals.
To further analyze the changes in liver, histopathological analysis was conducted. Briefly, the liver tissue was stained with hematoxylin and eosin (H&E) and evaluated using standard techniques.

Data set [4] has as its system rat insulinoma INS-1 cells. Put plainly: in vitro glucose-stimulated insulin secretion (GSIS) in INS-1 cells. The class given is cell-based. As to conditions: 1 hour glucose, then 2 hour incubation, ELISA, FIG. 4B. The source says: X is a known inducer of GSIS.

With tirzepatide [reference compound], the “inhibition of luciferase (GIPR activation, cAMP accumulation)” value against GIP receptor (GIPR) was “dose-dependent and saturable inhibition of luciferase with similar potency”. In data set [1], the “460/530 ratio, indicative of the activation of GIPR” value is “dose-dependent and saturable increase in 460/530 ratio”. Besides, in data set [2], the “serum insulin time course following glucose administration” value is “rapid induction of insulin” and the “serum glucose time course following glucose administration” value is recorded as “much smaller increase in serum glucose”. Further, in data set [3], the blood glucose levels entry is “decrease in blood glucose”, the “average daily food intake” value is on record as “decrease in food intake”, the “liver weight: livers of PBS control mice versus treated mice” value was “much heavier compared to the mice receiving treatments” and the “subcutaneous white adipose tissue (sWAT) weight” value is “decreased”. Further, in data set [3], the “plasma insulin levels on Day 15” value is “significant decrease in the levels of insulin” and the “change in body weight” value is reported as “progressive weight loss”. Besides, in data set [3] (FIG. 8J), the “liver histology: hepatocellular ballooning and steatosis” value (from here on “liver histology”) was “a decrease in hepatocellular ballooning and steatosis”. Also, the “liver histology” value in data set [3] (higher magnifications, compared to untreated animals, FIG. 8K) is “significant decrease in hepatocellular ballooning and steatosis”. Further, in data set [3] (picrosirius red, FIG. 8I), the “liver collagen staining (fibrosis)” value is “a decrease in collagen staining”.
On to “GLP-1-Fc-GIP(Ag): GLP-1 fused to GIP agonist peptide (amino acids 1-42) via a hinge-CH2-CH3 Fc domain derived from IgG1; SEQ ID NO: 93”, for which, in data set [2], the “serum insulin time course following glucose administration” value is given as “rapid induction of insulin” and the “serum glucose time course following glucose administration” value was “much smaller increase in serum glucose”. The glucose tolerance result in data set [2] (summary of GTT model) is recorded as “improved glucose tolerance”. Further, in data set [3], the blood glucose levels entry is given as “decrease in blood glucose”, the “average daily food intake” value is reported as “decrease in food intake”, the “liver weight: livers of PBS control mice versus treated mice” value is on record as “much heavier compared to the mice receiving treatments” and the “subcutaneous white adipose tissue (sWAT) weight” value was “decreased”. Besides, in data set [3], the “plasma insulin levels on Day 15” value is “significant decrease in the levels of insulin” and the “change in body weight” value is “progressive weight loss”. In addition, in data set [3] (FIG. 8B), the “weights of individual mice” value is “induced weight loss”. Also, the “liver histology” value in data set [3] (FIG. 8J) was “a decrease in hepatocellular ballooning and steatosis”. Moreover, the “plasma insulin levels on Day 1” value in data set [3] (between 15 and 120 minutes after treatment, one way ANOVA p<0.05, FIG. 8C left panel) is recorded as “rapid decrease in insulin levels”. Besides, in data set [3] (obesity model), the tolerability entry was “well tolerated and no overt toxicities were noted”. Moreover, in data set [3] (picrosirius red, FIG. 8I), the “decrease in liver collagen staining relative to tirzepatide or dulaglutide” value is reported as “greater decrease in collagen staining” and the “liver collagen staining (fibrosis)” value is given as “a decrease in collagen staining”. The “insulin in culture supernatant (GSIS)” value in data set [4] is listed as “stimulated insulin production to a similar, if not greater magnitude than dulaglutide or tirzepatide”.

B1: GIP(Ag)-Fc-FGF19: GIP fused to FGF19 via a hinge-CH2-CH3 Fc domain derived from IgG1; SEQ ID NO: 88 (protein)
chain: YAEGTFISDYSIAMDKIHQQDFVNWLLAQKGKKNDWKHNITQPCPAPEAAGGPSVFLFPPKPKDTLMISRTPEVTCVVVDVSHEDPEVKFNWYVDGVEVHNAKTKPREEQYNSTYRVVSVLTVLHQDWLNGKEYKCKVSNKALPAPIEKTISKAKGQPREPQVYTLPPSRDELTKNQVSLTCLVKGFYPSDIAVEWESNGQPENNYKTTPPVLDSDGSFFLYSKLTVDKSRWQQGNVFSCSVMHEALHNHYTQKSLSLSPGKIEGRMDRDSSPLVHYGWGDPIRLRHLYTSGPHGLSSCFLRIRADGVVDCARGQSAHSLLEIKAVALRTVAIKGVHSVRYLCMGADGKMQGLLQYSEEDCAFEEEIRPDGYNVYRSEKHRLPVSLSSAKQRQLYKNRGFLPLSHFLPMLPMVPEEPEDLRGHLESDMFSSPLETDSMDPFGLVTGLEAVRSPSFEK
Regarding B1, the “inhibition of luciferase (GIPR activation, cAMP accumulation)” value with GIP receptor (GIPR) was “dose-dependent and saturable inhibition of luciferase with similar potency”. The “460/530 ratio, indicative of the activation of GIPR” value in data set [1] is “dose-dependent and saturable increase in 460/530 ratio”. In addition, in data set [4], the “insulin in culture supernatant (GSIS)” value is listed as “stimulated insulin production to a similar, if not greater magnitude than dulaglutide or tirzepatide”.

These data come from patent publication US12492236B2, “Fusion proteins for the treatment of cardiometabolic diseases” (Shattuck Labs, Inc., priority 2022, dated 2025).
